Experimental data from article PMC3753754, “Andrographis paniculata Extract and Andrographolide Modulate the Hepatic Drug Metabolism System and Plasma Tolbutamide Concentrations in Rats” (Evidence-based Complementary and Alternative Medicine : eCAM, 2013).
Marks after values point to notes of the source that are not given here.

Assays:
[1] = target: T1, pregnane X receptor (PXR) (Rattus norvegicus, UniProt Q9R1A7); experiment: EMSA of liver nuclear protein binding to DR4 consensus sequence; assay type: in vivo; conditions: APE or andrographolide for 5 days
T1 construct: from tissue; host or cells: crude liver nuclear extract of treated Sprague-Dawley rats
T1 sequence (Q9R1A7 1-431): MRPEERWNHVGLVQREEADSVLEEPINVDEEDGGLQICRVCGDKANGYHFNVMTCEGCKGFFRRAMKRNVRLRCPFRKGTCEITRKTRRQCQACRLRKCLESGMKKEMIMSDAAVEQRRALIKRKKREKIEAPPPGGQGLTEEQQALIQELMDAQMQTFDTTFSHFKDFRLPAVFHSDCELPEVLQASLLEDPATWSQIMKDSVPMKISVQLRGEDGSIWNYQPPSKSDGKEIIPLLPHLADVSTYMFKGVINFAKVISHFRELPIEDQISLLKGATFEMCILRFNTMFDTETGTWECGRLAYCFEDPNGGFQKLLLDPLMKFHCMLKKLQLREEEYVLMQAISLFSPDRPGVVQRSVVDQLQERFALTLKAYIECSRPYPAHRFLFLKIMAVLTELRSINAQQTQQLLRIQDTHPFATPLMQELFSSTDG
T1 sequence (Q05343 1-467 partner): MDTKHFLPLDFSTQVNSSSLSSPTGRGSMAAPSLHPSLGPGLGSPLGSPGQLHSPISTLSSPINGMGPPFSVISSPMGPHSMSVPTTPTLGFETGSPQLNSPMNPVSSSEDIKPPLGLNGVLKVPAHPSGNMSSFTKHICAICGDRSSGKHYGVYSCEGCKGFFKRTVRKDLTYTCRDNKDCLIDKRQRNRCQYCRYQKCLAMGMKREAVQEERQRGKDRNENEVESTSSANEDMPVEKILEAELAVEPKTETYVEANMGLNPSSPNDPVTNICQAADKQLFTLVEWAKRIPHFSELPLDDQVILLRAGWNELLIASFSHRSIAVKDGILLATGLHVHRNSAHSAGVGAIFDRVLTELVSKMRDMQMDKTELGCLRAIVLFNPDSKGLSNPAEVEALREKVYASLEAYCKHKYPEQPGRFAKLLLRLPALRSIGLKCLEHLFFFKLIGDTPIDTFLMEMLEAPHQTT
Protocol: (§1) Nuclear proteins of liver tissues were extracted as described by Tian et al. with some modifications. Briefly, 0.1 g of liver was homogenized (1 : 9, w/v) with 0.9 mL of ice-cold 10 mM HEPES buffer (pH 7.9) containing 10 mM KCl, 1 mM MgCl2, 0.1 mM EDTA, 0.5 mM dithiothreitol, 0.5 mM PMSF, 4 μg/mL leupeptin, and 20 μg/mL aprotinin. The homogenates were placed in an ice bath for 15 min and then centrifuged at 600 ×g for 10 min. Then, 100 μL of 10% Nonidet P-40 was added to the supernatant, and the samples were allowed to sit in an ice bath for 10 min. The supernatant was centrifuged at 5,000 ×g for 5 min. The pellet, containing crude nuclei, was resuspended in 100 μL of hypertonic buffer containing 10 mM HEPES, 400 mM KCl, 1 mM MgCl2, 0.1 mM EDTA, 0.5 mM dithiothreitol, 4 μg/mL leupeptin, 20 μg/mL aprotinin, 25% glycerol, and 0.5 mM PMSF at 4°C for 45 min. Nuclear proteins were then collected by centrifugation at 12,000 ×g for 15 min.
(§2) EMSA was performed according to the method reported previously. The LightShift Chemiluminescent EMSA Kit (Pierce, Rockford, IL) and synthetic biotin-labeled double-stranded consensus oligonucleotides of DR4 (5′-[…]-3′) and xenobiotic response element (XRE) (forward: 5′-[…]-3′) were used to measure pregnane X receptor (PXR) and aryl hydrocarbon receptor (AhR) nuclear protein-DNA-binding activity. […]

[2] = target: T2, aryl hydrocarbon receptor (AhR) (Rattus norvegicus, UniProt P41738); experiment: EMSA of liver nuclear protein binding to XRE consensus sequence; assay type: in vivo; conditions: APE or andrographolide for 5 days
T2 construct: from tissue; host or cells: crude liver nuclear extract of treated Sprague-Dawley rats
Protocol: as §1, §2

[3] = Glucose tolerance test after tolbutamide in high-fat diet-induced obese mice; assay type: in vivo, C57BL/6 mice
Protocol: Eleven-month-old high-fat diet-fed (45% of energy from fat; Research Diet Inc., New Brunswick, NJ) C57BL/6 mice were obtained from the National Health Research Institute (Miaoli, Taiwan). Control mice were orally administered 0.5% methyl cellulose (10 mL/kg). […] After the 5th daily dose, the mice were deprived of food overnight. On day 6, a 20 mg/kg oral dose of tolbutamide, as a solution in Cremophor EL/ethanol/water (30/10/60, v/v/v), was administered to each mouse. Thirty minutes later, a 1 g/kg dose of glucose, as a solution in water, was administered orally according to the method described by Zong et al.. Serial blood samples were collected up to 8 h after the glucose dose from each mouse. The animals were then killed by exsanguination and the livers collected.
Plasma glucose was determined by use of enzymatic kits purchased from Audit Diagnostics Co. (Cork, Ireland). Plasma aspartate aminotransferase (AST) and alanine aminotransferase (ALT) activities were measured by using commercial kits purchased from Randox Laboratories (Antrim, UK).

[4] = obese mice, 2 g/kg APE or 50 mg/kg AND for 5 days, day 6 tolbutamide 20 mg/kg oral, 30 min later glucose 1 g/kg oral

T2 sequence (P41738 10-853): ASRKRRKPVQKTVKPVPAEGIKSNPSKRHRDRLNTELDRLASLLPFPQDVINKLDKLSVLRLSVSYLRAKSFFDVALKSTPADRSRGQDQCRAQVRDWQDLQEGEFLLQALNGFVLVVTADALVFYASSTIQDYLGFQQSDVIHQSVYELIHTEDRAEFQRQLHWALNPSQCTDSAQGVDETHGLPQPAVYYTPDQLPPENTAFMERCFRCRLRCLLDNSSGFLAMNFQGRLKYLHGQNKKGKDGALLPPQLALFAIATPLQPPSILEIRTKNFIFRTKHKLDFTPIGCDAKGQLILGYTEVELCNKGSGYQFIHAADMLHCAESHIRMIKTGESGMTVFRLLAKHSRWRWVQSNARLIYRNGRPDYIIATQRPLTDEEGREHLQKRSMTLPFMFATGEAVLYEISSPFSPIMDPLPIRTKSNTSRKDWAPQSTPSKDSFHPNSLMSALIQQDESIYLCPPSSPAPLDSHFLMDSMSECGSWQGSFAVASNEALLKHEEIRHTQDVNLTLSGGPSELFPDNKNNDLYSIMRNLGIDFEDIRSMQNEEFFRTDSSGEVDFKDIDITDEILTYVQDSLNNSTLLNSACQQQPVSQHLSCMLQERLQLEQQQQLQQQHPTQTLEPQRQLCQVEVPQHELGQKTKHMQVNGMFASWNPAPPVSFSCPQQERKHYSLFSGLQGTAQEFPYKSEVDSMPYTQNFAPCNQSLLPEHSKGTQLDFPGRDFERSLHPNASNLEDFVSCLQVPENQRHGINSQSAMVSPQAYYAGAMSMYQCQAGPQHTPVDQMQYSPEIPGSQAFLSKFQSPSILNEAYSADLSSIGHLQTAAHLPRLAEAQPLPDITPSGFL
T2 sequence (P41739 whole entry partner): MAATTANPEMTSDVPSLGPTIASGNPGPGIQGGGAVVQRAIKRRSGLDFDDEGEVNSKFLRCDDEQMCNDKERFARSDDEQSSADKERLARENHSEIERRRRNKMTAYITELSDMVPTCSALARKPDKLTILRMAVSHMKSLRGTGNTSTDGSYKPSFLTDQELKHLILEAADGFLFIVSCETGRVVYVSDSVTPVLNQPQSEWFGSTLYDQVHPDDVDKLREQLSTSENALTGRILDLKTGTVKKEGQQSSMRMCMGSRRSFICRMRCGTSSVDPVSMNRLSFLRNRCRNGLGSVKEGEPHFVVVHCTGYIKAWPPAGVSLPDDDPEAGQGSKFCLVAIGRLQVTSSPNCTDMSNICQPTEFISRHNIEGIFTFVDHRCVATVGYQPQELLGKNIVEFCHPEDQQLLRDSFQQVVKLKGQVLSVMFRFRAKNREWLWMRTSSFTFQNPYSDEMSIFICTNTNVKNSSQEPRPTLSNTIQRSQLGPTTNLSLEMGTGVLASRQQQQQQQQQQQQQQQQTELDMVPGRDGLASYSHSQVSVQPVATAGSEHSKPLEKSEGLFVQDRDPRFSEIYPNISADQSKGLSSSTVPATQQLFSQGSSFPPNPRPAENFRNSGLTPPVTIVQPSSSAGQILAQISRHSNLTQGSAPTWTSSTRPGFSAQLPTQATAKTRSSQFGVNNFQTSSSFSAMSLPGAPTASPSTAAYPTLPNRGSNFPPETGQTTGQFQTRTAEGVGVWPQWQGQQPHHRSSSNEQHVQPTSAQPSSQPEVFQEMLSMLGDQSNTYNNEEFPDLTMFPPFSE

C=C1CC[C@@H]2[C@](C)(CO)[C@H](O)CC[C@@]2(C)[C@@H]1C/C=C1/C(=O)OC[C@H]1O [andrographolide, Andrographolide]
Binding activity of the DR4 consensus sequence to nuclear protein PXR [1]: enhanced | Binding activity of the XRE consensus sequence to nuclear protein AhR [2]: enhanced | Hypoglycemic effect of tolbutamide in a glucose tolerance test ([3]; high-fat diet-induced obese mice treated with APE or andrographolide): not changed | Plasma glucose, time 0 h [3, 4]: 80 ± 7^a mg/dL | Plasma glucose, time 0.25 h [3, 4]: 152 ± 37^a mg/dL | Plasma glucose, time 0.5 h [3, 4]: 124 ± 28^ab mg/dL | Plasma glucose, time 1 h [3, 4]: 99 ± 29 mg/dL | Plasma glucose, time 2 h [3, 4]: 88 ± 28 mg/dL | Plasma glucose, time 4 h [3, 4]: 76 ± 17^a mg/dL | Plasma glucose, time 8 h [3, 4]: 80 ± 17^a mg/dL | Fasting blood glucose level ([3]; obese mice, APE or andrographolide for 5 days, fasted overnight): 80 ± 7 mg/dL | Area under the plasma glucose concentration versus time curve (AUC0–8 h) ([3]; obese mice, APE or andrographolide for 5 days, then tolbutamide and glucose load): 171 ± 42 mg·h/dL
